Source: BindingDB's records for doi:10.1021/acs.jmedchem.1c00926 (Biogen, 2022)

Test: Inhibition of CD69 in human whole blood preincubated for 30 mins followed by anti-human IgD stimulation and measured after 18 to 22 hrs by flow cytometry

Row | Compound | IC50 [nM]
1 | Cn1cc(Nc2nccc(-c3ccc4c(c3)CCNC[C@H]4NC(=O)c3cn(C(C)(C)C)nn3)n2)cn1 | 400
2 | COCCN1CC[C@@H](NC(=O)c2cn(C(C)(C)C)nn2)c2ccc(-c3ccnc(Nc4cnn(C)c4)n3)cc2C1 [(R)-1-(tert-butyl)-N-(2-(2-methoxyethyl)-8-(2-((1-methyl-1H-pyrazol-4-yl)amino)pyrimidin-4-yl)-2,3,4,5-tetrahydro-1H-benzo[c]azepin-5-yl)-1H-1,2,3-triazole-4-carboxamide ] | 800
3 | CC(C)OC1CN(C(=O)N[C@@H]2CCCCc3cc(-c4ccnc(Nc5cnn(C)c5)n4)ccc32)C1 | 400
4 | Cn1cc(Nc2nccc(-c3ccc4c(c3)CNCC[C@H]4NC(=O)c3cn(C(C)(C)C)nn3)n2)cn1 | 1600
5 | Cn1cc(Nc2nccc(-c3ccc4c(c3)CCCCC4NC(=O)c3cnc(C(C)(C)C)nc3)n2)cn1 (centres undefined) | > 10000
6 | CN1CCc2cc(-c3ccnc(Nc4cnn(C)c4)n3)ccc2[C@H](NC(=O)c2cn(C(C)(C)C)nn2)C1 | 700
7 | Cn1cc(Nc2nccc(-c3ccc4c(c3)CCCCC4NC(=O)c3cn(C(C)(C)C)nn3)n2)cn1 (centres undefined) [1-(tert-butyl)-N-(2-(2-((1-methyl-1H-pyrazol-4-yl)amino)pyrimidin-4-yl)-6,7,8,9-tetrahydro-5H-benzo[7]annulen-5-yl)-1H-1,2,3-triazole-4-carboxamide] | 860
8 | Cc1c(NC(=O)c2cc3c(s2)CCCC3)cccc1-c1cn(C)c(=O)c(Nc2ccc(C3CN(C)CC(=O)N3C)cc2)n1 (centres undefined) | 1200

More lines, in order of falling IC50, values ahead:

Row | IC50 [nM] | Compound
9 | 390 | Cn1cc(Nc2nccc(-c3ccc4c(c3)CCCCC4NC(=O)c3nnc(C(C)(C)C)o3)n2)cn1 (centres undefined) [5-(tert-butyl)-N-(2-(2-((1-methyl-1H-pyrazol-4-yl)amino)pyrimidin-4-yl)-6,7,8,9-tetrahydro-5H-benzo[7]annulen-5-yl)-1,3,4-oxadiazole-2-carboxamide]
10 | 330 | Cn1cc(Nc2nccc(-c3ccc4c(c3)CCCC[C@H]4NC(=O)c3nnc(C(C)(C)C)o3)n2)cn1 [(R)-5-(tert-butyl)-N-(2-(2-((1-methyl-1H-pyrazol-4-yl)amino)pyrimidin-4-yl)-6,7,8,9-tetrahydro-5H-benzo[7]annulen-5-yl)-1,3,4-oxadiazole-2-carboxamide ]
11 | 220 | Cn1cc(Nc2nccc(-c3ccc4c(c3)CCCCC4NC(=O)c3nc(C(C)(C)C)no3)n2)cn1 (centres undefined) [3-(tert-butyl)-N-(2-(2-((1-methyl-1H-pyrazol-4-yl)amino)pyrimidin-4-yl)-6,7,8,9-tetrahydro-5H-benzo[7]annulen-5-yl)-1,2,4-oxadiazole-5-carboxamide ]
12 | 104 | Cn1cc(Nc2nccc(-c3ccc4c(c3)CCCC[C@H]4NC(=O)c3cn(C(C)(C)C)nn3)n2)cn1
13 | 59 | Cn1cc(Nc2nccc(-c3ccc4c(c3)CCCC[C@H]4NC(=O)c3nc(C(C)(C)C)no3)n2)cn1
14 | 40 | Cn1cc(Nc2nccc(-c3ccc4c(c3)CCCCC4NC(=O)N3CC[C@@H](C(C)(C)C)C3)n2)cn1 (some centres undefined)
